Earlier results on 2 compounds are cited in US20130109707A1, “FLUOROURACIL DERIVATIVES” (Concert Pharmaceuticals ,Inc., priority 2010, published 2013).

The conditions of the data set: patients treated with carmofur or with 5-fluorouracil; reported by Mixutani, Brain Nerve 2008.

As for `O=c1[nH]cc(F)c(=O)[nH]1` [5-fluorouracil], the cases of leukoencephalopathy was 0.026%.

In the case of `CCCCCCNC(=O)n1cc(F)c(=O)[nH]c1=O` [carmofur, 5-fluoro-N-hexyl-2,4-dioxo-pyrimidine-1-carboxamide], the cases of leukoencephalopathy is 0.026%.
